From ChEMBL document CHEMBL1201862, “PubChem BioAssay data set” (2004)
Activity calls are given as the source filed them.

Experiments:
[1] = target: Bifunctional protein GlmU (Mycobacterium tuberculosis, UniProt P9WMN3); assay: Inhibitors of Mycobacterial Glucosamine-1-phosphate acetyl transferase (GlmU). Secondary screen.; design: species or system Mycobacterium tuberculosis H37Rv
[2] = target: T1, Dual specificity protein phosphatase 6 (Rattus norvegicus, UniProt Q64346); assay: inhibition of rat DUSP6 enzyme activity – biochemical, in vitro, primary screen (AID 425)
T1 sequence (Q64346 whole entry): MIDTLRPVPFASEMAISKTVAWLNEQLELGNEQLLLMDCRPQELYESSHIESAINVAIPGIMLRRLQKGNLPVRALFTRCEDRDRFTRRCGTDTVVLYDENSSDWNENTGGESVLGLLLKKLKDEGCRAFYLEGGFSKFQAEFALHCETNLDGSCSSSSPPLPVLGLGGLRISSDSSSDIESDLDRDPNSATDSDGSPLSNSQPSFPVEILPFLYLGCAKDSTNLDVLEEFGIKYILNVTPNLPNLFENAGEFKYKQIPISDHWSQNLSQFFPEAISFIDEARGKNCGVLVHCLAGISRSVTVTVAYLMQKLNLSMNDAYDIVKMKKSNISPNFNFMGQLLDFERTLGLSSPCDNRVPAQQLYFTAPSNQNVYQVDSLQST

[3] = target: Intestinal-type alkaline phosphatase (Mus musculus, UniProt P24822); assay: mouse intestinal alkaline phosphatase activators, dose response, biochemical, luminescence, uHTS hits (AID 488783); assay type: functional
[4] = target: Protein kinase C zeta type (Homo sapiens, UniProt Q05513); assay type: functional;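 also: measured as one member of a broad kinase profiling panel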
[5] = target: Serine/threonine-protein kinase D2 (Homo sapiens, UniProt Q9BZL6); assay type: functional;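 also: measured against PRKD2 as one member of a kinome-wide kinase profiling panel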
[6] = target: Calcium/calmodulin-dependent protein kinase type II subunit gamma (Homo sapiens, UniProt Q13555); assay type: functional
[7] = target: Mitogen-activated protein kinase 8 (Homo sapiens, UniProt P45983); assay type: functional;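 also: value comes from one member of a kinome-wide kinase profiling panel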
[8] = target: MAP kinase-activated protein kinase 5 (Homo sapiens, UniProt Q8IW41); assay type: functional;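 also: measured as one member of a kinome panel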
[9] = target: MAP kinase-activated protein kinase 2 (Homo sapiens, UniProt P49137); assay type: functional;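 also: measured as one member of a kinome-wide kinase panel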
[10] = target: Mast/stem cell growth factor receptor Kit (Homo sapiens, UniProt P10721); assay type: functional;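 also: KIT entry within a kinase panel assay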
[11] = target: Tyrosine-protein kinase Lyn (Homo sapiens, UniProt P07948); assay type: functional;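 also: lyn as one member of a kinase panel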
[12] = target: Non-receptor tyrosine-protein kinase TYK2 (Homo sapiens, UniProt P29597); assay type: functional
[13] = target: Tyrosine-protein kinase Srms (Homo sapiens, UniProt Q9H3Y6); assay type: functional;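 also: SRMS measured as one member of a kinome-wide kinase profiling panel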
Ephrin type-A receptor 2 = Ephrin type-A receptor 2 (Homo sapiens, UniProt P29317); assay type: functional;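 also: EPHA2 tested as one member of a kinome-wide kinase panel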
[14] = target: Protein kinase C iota type (Homo sapiens, UniProt P41743); assay type: functional;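 also: measured within a kinome-wide kinase panel, PRKCI as panel member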
[15] = target: Homeodomain-interacting protein kinase 4 (Homo sapiens, UniProt Q8NE63); assay type: functional
[16] = target: Fibroblast growth factor receptor 3 (Homo sapiens, UniProt P22607); assay type: functional
[17] = target: BDNF/NT-3 growth factors receptor (Homo sapiens, UniProt Q16620); assay type: functional;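 also: NTRK2 measured as one member of a broad kinome-wide kinase profiling panel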
[18] = target: cAMP-dependent protein kinase catalytic subunit alpha (Homo sapiens, UniProt P17612); assay type: functional
[19] = target: Mitogen-activated protein kinase 14 (Homo sapiens, UniProt Q16539); assay type: functional;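 also: part of a kinome-wide panel, MAPK14 entry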
INS1 = assay: INS-1E survival protection against cytokine death – cell-based, luminescence, retest, dose response (AID 449756); assay type: functional; conditions: Rattus norvegicus;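 also: cell death triggered by IL-1 beta plus TNF-alpha plus IFN-gamma mixture; protective hits raise ATP signal compared with cytokine alone wells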
[20] = MITF Measured in Cell-Based System Using Plate Reader - 2084-01_Inhibitor_Dose_DryPowder_Activity_Set7.; assay type: functional
[21] = target: T2, Orexin/Hypocretin receptor type 1 (Homo sapiens, UniProt O43613); assay: Homogeneous Time Resolved Fluorescence (HTRF)-based cell-based high throughput dose response assay for antagonists of the orexin 1 receptor (OX1R; HCRTR1). [Related pubchem assays (depositor defined):AID434989, AID435008, AID463079, AID485270, AID492963, AID492964, AID492965, AID493232, AID504717, AID504718]; assay type: functional;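 also: antagonism measured against Orexin-A challenge at about its EC80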
T2 sequence (O43613 whole entry): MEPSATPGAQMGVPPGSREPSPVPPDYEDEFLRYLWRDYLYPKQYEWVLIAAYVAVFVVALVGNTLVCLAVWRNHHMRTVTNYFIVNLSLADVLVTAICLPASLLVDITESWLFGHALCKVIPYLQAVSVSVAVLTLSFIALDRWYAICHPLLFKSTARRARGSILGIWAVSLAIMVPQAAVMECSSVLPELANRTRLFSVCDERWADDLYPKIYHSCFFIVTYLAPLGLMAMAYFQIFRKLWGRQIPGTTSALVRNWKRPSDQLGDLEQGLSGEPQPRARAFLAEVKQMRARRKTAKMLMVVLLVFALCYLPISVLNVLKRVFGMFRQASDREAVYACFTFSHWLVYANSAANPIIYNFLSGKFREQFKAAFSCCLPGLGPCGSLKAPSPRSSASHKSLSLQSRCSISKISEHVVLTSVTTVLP

Orexin receptor type 2 = target: T3, Orexin receptor type 2 (Homo sapiens, UniProt O43614); assay: Counterscreen assay for antagonists of the orexin 1 receptor (OX1R; HCRTR1): Homogeneous Time Resolved Fluorescence (HTRF)-based cell-based dose response assay for antagonists of the orexin 2 receptor (OX2R; HCRTR2), run by assay provider.; assay type: functional
T3 sequence (O43614 whole entry): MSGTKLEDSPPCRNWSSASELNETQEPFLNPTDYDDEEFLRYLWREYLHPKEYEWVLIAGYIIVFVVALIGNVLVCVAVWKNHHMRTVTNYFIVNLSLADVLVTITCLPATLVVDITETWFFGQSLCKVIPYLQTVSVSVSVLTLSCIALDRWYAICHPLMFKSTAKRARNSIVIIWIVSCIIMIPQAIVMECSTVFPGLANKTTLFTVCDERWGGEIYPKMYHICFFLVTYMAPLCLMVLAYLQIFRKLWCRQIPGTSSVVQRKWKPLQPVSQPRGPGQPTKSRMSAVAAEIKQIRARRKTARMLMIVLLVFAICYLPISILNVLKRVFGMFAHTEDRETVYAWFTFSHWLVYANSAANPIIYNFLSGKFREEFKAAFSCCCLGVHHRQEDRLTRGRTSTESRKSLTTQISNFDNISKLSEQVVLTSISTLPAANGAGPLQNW

[22] = Trypanosoma cruzi growth suppression in host cells – NIH3T3 host cells, beta-gal luminescence, confirmation (AID 2044); assay type: functional, cell-based;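 also: intracellular parasites grown in NIH/3T3 mouse fibroblasts as host cells; luminescent beta-galactosidase reporter signal from transgenic T. cruzi replicating inside host cells; inhibitors lower the luminescence signal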
Ephrin type-A receptor 4 = Ephrin type-A receptor 4 (Mus musculus, UniProt Q03137); assay: EphA4 ligand-binding antagonists – biochemical, colorimetric, mouse EphA4, primary screen (AID 689); assay type: functional
Sequence of Ephrin type-A receptor 4 (Q03137 whole entry): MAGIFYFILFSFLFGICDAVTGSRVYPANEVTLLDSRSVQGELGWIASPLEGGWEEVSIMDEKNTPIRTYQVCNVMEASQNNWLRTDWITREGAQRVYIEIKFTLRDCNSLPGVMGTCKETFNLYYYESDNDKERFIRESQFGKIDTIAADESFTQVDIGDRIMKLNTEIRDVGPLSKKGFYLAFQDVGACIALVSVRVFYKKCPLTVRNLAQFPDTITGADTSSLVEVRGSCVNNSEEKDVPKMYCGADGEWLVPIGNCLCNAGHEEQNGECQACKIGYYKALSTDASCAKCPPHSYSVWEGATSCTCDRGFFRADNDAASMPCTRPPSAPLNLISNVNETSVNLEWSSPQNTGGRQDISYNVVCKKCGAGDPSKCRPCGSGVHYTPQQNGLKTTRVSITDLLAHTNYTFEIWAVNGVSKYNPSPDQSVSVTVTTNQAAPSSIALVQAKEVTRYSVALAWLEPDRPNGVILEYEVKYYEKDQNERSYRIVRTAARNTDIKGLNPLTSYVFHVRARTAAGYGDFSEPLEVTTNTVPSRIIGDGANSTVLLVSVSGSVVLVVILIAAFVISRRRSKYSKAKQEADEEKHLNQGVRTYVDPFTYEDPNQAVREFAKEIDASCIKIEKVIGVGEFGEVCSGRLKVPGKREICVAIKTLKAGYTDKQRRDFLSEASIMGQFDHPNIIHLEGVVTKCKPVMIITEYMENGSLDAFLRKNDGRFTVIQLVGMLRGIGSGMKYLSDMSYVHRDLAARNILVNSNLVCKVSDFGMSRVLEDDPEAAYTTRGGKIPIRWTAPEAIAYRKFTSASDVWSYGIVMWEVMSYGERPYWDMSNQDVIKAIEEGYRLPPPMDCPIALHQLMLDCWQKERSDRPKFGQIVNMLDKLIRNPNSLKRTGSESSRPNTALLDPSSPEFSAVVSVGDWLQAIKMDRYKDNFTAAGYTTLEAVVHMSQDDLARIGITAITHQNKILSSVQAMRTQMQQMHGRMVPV

Sequence of Homeodomain-interacting protein kinase 4 (Q8NE63 whole entry): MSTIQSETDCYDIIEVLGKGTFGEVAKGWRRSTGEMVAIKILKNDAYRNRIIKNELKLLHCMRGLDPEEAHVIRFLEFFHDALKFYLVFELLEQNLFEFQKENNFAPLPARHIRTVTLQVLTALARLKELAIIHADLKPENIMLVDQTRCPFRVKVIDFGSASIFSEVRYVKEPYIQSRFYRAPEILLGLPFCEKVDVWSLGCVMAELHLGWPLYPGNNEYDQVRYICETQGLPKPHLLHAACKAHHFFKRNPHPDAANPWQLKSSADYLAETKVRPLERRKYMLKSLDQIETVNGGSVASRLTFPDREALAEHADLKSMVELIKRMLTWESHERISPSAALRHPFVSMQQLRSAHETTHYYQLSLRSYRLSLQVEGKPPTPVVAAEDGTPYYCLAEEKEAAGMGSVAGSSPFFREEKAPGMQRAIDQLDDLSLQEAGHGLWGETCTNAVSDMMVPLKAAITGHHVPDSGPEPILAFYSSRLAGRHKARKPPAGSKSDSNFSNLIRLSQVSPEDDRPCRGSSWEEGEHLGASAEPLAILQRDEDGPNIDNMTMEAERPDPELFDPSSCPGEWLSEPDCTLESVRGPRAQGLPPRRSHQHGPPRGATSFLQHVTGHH
Sequence of Ephrin type-A receptor 2 (P29317 whole entry): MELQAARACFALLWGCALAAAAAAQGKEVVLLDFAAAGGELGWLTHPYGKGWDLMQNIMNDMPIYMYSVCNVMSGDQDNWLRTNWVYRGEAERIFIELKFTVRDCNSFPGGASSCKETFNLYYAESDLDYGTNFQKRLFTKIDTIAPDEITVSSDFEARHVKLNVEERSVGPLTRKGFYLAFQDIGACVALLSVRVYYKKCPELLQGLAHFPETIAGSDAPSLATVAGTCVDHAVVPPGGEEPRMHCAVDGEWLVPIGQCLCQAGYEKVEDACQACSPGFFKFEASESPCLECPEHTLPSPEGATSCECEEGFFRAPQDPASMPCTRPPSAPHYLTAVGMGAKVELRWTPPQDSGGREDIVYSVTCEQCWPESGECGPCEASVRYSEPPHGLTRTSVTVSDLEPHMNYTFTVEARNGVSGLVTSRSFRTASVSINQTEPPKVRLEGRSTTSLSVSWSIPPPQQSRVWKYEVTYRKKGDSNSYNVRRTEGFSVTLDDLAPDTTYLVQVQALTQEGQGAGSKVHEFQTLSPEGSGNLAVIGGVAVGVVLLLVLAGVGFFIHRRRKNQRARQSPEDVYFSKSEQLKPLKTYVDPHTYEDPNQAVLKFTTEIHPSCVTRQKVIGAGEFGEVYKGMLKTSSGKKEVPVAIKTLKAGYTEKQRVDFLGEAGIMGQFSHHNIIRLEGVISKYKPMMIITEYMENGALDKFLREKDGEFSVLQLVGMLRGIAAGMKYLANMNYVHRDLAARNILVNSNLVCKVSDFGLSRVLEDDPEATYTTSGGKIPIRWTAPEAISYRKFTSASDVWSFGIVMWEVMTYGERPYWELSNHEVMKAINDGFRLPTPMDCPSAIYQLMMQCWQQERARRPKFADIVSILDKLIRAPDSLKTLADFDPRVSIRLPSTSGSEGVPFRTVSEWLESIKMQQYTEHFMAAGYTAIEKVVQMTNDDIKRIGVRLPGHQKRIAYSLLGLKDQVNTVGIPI
Sequence of Protein kinase C iota type (P41743 whole entry): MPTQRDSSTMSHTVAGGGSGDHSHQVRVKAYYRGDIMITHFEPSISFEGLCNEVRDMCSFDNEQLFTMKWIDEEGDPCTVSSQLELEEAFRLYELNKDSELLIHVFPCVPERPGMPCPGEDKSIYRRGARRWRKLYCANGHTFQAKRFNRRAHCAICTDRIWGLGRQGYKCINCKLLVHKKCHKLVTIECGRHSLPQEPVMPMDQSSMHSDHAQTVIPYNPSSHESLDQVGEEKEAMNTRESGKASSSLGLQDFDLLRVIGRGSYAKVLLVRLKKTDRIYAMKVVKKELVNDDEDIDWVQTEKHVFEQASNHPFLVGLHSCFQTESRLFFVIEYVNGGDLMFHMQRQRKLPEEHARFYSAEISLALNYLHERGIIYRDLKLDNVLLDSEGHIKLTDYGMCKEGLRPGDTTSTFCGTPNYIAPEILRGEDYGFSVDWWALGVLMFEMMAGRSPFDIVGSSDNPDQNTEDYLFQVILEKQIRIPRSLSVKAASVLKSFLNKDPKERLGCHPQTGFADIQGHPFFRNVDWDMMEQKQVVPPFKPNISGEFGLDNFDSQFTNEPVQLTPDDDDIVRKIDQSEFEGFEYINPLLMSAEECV
Sequence of Bifunctional protein GlmU (P9WMN3 whole entry): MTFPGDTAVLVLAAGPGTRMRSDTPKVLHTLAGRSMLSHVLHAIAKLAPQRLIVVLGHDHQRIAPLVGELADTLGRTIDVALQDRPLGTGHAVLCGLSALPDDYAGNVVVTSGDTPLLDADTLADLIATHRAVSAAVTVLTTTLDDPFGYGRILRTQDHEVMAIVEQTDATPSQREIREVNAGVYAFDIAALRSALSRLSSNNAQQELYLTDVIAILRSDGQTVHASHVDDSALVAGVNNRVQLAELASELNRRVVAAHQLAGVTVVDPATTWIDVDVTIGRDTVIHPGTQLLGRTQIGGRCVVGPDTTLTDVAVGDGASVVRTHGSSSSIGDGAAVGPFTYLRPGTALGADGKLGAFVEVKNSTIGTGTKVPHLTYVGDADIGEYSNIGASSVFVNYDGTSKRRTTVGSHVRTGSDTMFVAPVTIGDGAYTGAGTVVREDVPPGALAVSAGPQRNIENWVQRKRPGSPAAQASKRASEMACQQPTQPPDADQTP
Sequence of Mitogen-activated protein kinase 14 (Q16539 whole entry): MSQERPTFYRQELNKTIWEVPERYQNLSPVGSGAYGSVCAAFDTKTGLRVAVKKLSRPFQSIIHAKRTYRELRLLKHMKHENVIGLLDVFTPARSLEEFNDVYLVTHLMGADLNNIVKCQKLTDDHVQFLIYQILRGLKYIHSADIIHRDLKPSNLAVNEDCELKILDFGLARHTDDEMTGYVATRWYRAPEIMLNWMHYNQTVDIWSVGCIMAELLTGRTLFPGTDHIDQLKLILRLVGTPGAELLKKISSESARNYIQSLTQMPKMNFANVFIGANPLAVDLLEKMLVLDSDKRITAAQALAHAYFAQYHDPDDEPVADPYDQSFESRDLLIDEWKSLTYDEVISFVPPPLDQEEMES
Sequence of Fibroblast growth factor receptor 3 (P22607 whole entry): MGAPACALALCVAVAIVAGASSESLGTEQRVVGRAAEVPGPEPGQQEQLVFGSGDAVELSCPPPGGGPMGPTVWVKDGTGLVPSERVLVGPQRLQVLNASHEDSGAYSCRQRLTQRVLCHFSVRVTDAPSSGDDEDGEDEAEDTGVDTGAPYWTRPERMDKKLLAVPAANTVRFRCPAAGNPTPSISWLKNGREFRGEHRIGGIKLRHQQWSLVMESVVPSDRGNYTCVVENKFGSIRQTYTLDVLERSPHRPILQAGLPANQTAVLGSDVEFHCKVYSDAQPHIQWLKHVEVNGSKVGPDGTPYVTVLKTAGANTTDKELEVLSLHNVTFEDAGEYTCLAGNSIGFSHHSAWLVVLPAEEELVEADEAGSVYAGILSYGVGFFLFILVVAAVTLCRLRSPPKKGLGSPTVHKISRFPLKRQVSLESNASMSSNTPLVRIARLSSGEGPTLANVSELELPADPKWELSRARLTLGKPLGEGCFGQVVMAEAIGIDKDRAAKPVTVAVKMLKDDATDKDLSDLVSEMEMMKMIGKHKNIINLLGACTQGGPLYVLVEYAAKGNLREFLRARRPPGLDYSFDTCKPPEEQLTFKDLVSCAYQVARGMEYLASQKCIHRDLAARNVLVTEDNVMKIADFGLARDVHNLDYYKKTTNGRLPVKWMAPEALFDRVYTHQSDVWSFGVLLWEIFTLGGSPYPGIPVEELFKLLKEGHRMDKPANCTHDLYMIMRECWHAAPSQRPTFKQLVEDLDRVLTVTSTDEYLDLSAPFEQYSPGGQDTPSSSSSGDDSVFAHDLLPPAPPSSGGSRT

CS(=O)(=O)c1ccc2c(c1)SC1=NC(=O)/C(=C/c3ccc(O)c(O)c3)C(=N)N12
113000 nM (not active): IC50 [2]
active: IC50 [1] 159000 nM | EC50 [3] 6350 nM

COc1ccc(C(=O)Nc2n[nH]c3ccc(-c4cn(Cc5ccccc5)nn4)cc23)cc1OC
inactive: Ki [4] > 7940 nM | Ki [10] > 1260 nM | Ki [13] > 1580 nM | Ki (Ephrin type-A receptor 2) > 3160 nM | Ki [17] > 5010 nM | Ki [19] > 3980 nM
active: Ki [5] 2000 nM | Ki [6] 316 nM | Ki [7] 631 nM | Ki [8] 1260 nM | Ki [9] 2000 nM | Ki [11] 501 nM | Ki [12] 20 nM | Ki [14] 3980 nM | Ki [15] 1000 nM | Ki [16] 158 nM | Ki [18] 501 nM

C=CCNC1=C(Cl)C(=O)c2ccccc2C1=O
active: AC50 (INS1) 7640 nM | AC50 [20] 735 nM

CN(C)c1ccc(-c2nnc(-c3cccs3)o2)cc1
inactive: IC50 (Orexin receptor type 2) > 50000 nM
active: IC50 [21] 3580 nM

CCOC(=O)C(C(=O)OCC)c1cc(Br)c2noc3c2c1C(=O)c1ccccc1-3
active: EC50 [22] 510 nM | IC50 (Ephrin type-A receptor 4) 300 nM
